In brackets after ≈: the same amount, converted by molar mass. Where two headings read alike, the source gives them in different places.
Key:
[1] = test system: H. pylori UNT189-1 (ATCC43504); test: MIC by agar dilution (MHIIb agar), strain UNT189-1; type: cell-based; conditions: Helicobacter pylori, 72 h
Protocol: (§1) (a) Sample Plate Preparation: Aliquots of a 2-fold serial dilution of Hexyl-SerMe-Immucillin A (from 62.5 μg/mL-6.25 μg/mL in DMSO, 0.02 mL) were mixed into separate 2 mL molten MHIIb agar, and poured into separate wells on each well of a 12-well plate, allowed to set for 20-30 minutes and dry in a biosafety cabinet for 10 minutes prior to Inoculation.
(§2) (b) Inoculation: Frozen inoculate stock of H. pylori strains UNT020-1 (Sydney Strain SS1) and UNT189-1 (ATCC43504) was separately streaked onto Columbia+5% sheep blood agar and microaerophilically incubated for 72 h at 37° C. The plate cultures of the H. pylori strains were then harvested in 0.9% sterile saline solution and the OD at 530 nm of the suspension was determined. The OD of each suspension was adjusted to 1.5-2.0 by dilution into 0.9% sterile saline. The UNT020-1 suspension was further diluted 2:5, but the UNT189-1 suspension was not further diluted, and these were used to inoculate the agar plates. Samples of the suspensions (3 μL) were spotted onto the MHIIb agar wells in the 12-well plate. The CFU/mL of each inoculum was confirmed by generating a 10-fold serial dilution of each inoculum in 0.9% sterile saline and spotting 8 μL of each dilution onto Columbia+5% sheep blood agar plates. After allowing the spots to dry for 10 min, the plates were placed into a microaerophilic chamber and incubated at 37° C. for 72 h.

[2] = Concentration in mouse gastric mucin after a single oral dose; type: in vivo; conditions: for concentration at 0.25 h / concentration at 0.5 h / concentration at 1 h / concentration at 2 h / concentration at 4 h / concentration at 8 h / concentration at 12 h / concentration at 24 h: C57/BL6, mouse, gastric mucin, po, 10 mg/kg, mouse; for concentration at 0.25 h: 0.25 h after single dose 10 mg/kg PO; for concentration at 0.5 h: 0.50 h after single dose 10 mg/kg PO; for concentration at 1 h: 1.00 h after single dose 10 mg/kg PO; for concentration at 2 h: 2.00 h after single dose 10 mg/kg PO; for concentration at 4 h: 4.00 h after single dose 10 mg/kg PO; for concentration at 8 h: 8.00 h after single dose 10 mg/kg PO; for concentration at 12 h: 12.0 h after single dose 10 mg/kg PO; for concentration at 24 h: 24.0 h after single dose 10 mg/kg PO
Protocol: (a) Oral Dosing of Mice with 10 mg/kg Hexyl-SerMe-Immucillin A: Female C57/BL6 mice ranging from 5-6 weeks in age and 18-22 grams in weight (Harlan Laboratories) were dosed by oral gavage with of Hexyl-SerMe-Immucillin A (0.4 mL of a 0.5 mg/mL solution in water for injection).
(b) Mucin Sampling: Mice (3 mice/time point) were euthanized via CO2 inhalation at 0.25, 0.5, 1, 2, 4, 8, 12 and 24 h, then the mucin layer was scraped from the longitudinally dissected stomach using a glass slide, collected and weighed.
(c) Preparation of Gastric Mucin Homogenates: Approximately 30 mg of mouse mucin was weighted into a 2 mL homogenizer tube (prefilled with 3.0 mm i.d. zirconium beads) and mixed with 0.2 mL PBS buffer. This was homogenized for 3 min at 4,000 rpm in a Beadbug D1030 (Benchmark Scientific) homogenizer.
(d) Extraction of Gastric Mucin Homogenates: Samples of mucin homogenate (50 μL) and of internal standard (see below) in water (10 μL) were treated with trichloroacetic acid (30% w/v, 30 μL), diluted with water (160 μL), vortexed for 10 sec and sonicated for 10 min, then centrifuged at 14,500 rpm for 5 min. A sample of the supernatant (160 μL) was transferred into autosampler vials. The internal standard was Butylthio-DADMe-Immucillin-H at 5.0 and 20.0 μg/mL.
(f) HPLC-MS-MS Analysis: Aliquots of supernatant (10 μL) were injected for analysis on Surveyor HPLC system (Thermo) fitted with an ACE 3 C18 Column (50×3 mm, 3 μm particles), with gradient elution at 30° C. with 400 μL/min mobile phase comprised of mixtures of 0.1% trifluoroacetic acid in water (A) and methanol (B) as follows: 0-5 min, A:B 9:1; 5-6.1 min, A:B 1:9; 6.1-10 min A:B 9:1. Hexyl-SerMe-Immucillin A eluted at 4.41±0.003 min. Detection was ESI MS/MS using a LCQ Deca (Thermo) in selected-reaction monitoring (SRM) positive mode using the MS/MS event m/z 292.2→147.2 and ion spray voltage of 4.5 kV.

[3] = test system: H. pylori UNT020-1 (Sydney Strain SS1); test: MIC by agar dilution (MHIIb agar), strain UNT020-1; type: cell-based; conditions: Helicobacter pylori, 72 h
Protocol: as §1, §2

[4] = female, read-out: concentration in gastric mucin, Animal-1
[5] = female, read-out: concentration in gastric mucin, Animal-2
[6] = female, read-out: concentration in gastric mucin, Animal-3
[7] = female, read-out: concentration in gastric mucin, Mean

MIC [1]: 1.9 ng/mL (≈ 6.52 nM)
concentration at 0.25 h [2, 4]: 60400 ng/g
concentration at 0.25 h [2, 5]: 64400 ng/g
concentration at 0.25 h [2, 6]: 45900 ng/g
concentration at 0.25 h [2, 7]: 56900 ng/g
concentration at 0.5 h [2, 4]: 46200 ng/g
concentration at 0.5 h [2, 5]: 90200 ng/g
concentration at 0.5 h [2, 6]: 60200 ng/g
concentration at 0.5 h [2, 7]: 65500 ng/g
concentration at 1 h [2, 4]: 20400 ng/g
concentration at 1 h [2, 5]: 12200 ng/g
concentration at 1 h [2, 6]: 12000 ng/g
concentration at 1 h [2, 7]: 14900 ng/g
concentration at 2 h [2, 4]: 2020 ng/g
concentration at 2 h [2, 5]: 1080 ng/g
concentration at 2 h [2, 6]: 16200 ng/g
concentration at 2 h [2, 7]: 6440 ng/g
concentration at 4 h [2, 4]: 670 ng/g
concentration at 4 h [2, 5]: 3740 ng/g
concentration at 4 h [2, 6]: 910 ng/g
concentration at 4 h [2, 7]: 1770 ng/g
concentration at 8 h [2, 4]: 650 ng/g
concentration at 8 h [2, 5]: 1620 ng/g
concentration at 8 h [2, 6]: 530 ng/g
concentration at 8 h [2, 7]: 930 ng/g
concentration at 12 h [2, 4]: 960 ng/g
concentration at 12 h [2, 5]: 950 ng/g
concentration at 12 h [2, 6]: 330 ng/g
concentration at 12 h [2, 7]: 740 ng/g
concentration at 24 h [2, 4]: 540 ng/g
concentration at 24 h [2, 5]: 390 ng/g
concentration at 24 h [2, 6]: 300 ng/g
concentration at 24 h [2, 7]: 410 ng/g
Cmax ([2]; female, C57/BL6, mouse gastric mucin, 10 mg/kg oral gavage): 65500 ng/g
half-life ([2]; female, C57/BL6, mouse gastric mucin, 10 mg/kg oral gavage, read-out: terminal half-life (converted)): 2.72 h
total exposure [AUC(0-inf)] ([2]; mouse gastric mucin, 10 mg/kg oral gavage): 78.6 µg·h/g
MIC [3]: 1.9 ng/mL (≈ 6.52 nM)
Structure (SMILES): CCCCCC[C@@H](CO)NCc1c[nH]c2c(N)ncnc12 [Hexyl-SerMe-Immucillin A, (2S)-2-[({4-Amino-5H-pyrrolo[3,2-d]pyrimidin-7-yl}methyl)amino]octan-1-ol]

— patent US10118928B2, “Treatment of H. pylori infections using MTAN inhibitors” (ALBERT EINSTEIN COLLEGE OF MEDICINE, INC., priority 2014, dated 2018)
